Data taken from article PMC12061717, “Molecular characterization of a Minus-C odorant-binding protein from Cyrtotrachelus buqueti (Coleoptera: Curculionidae)” (Frontiers in Physiology, 2025).
pIC50, pKd, pKi: −log10 of the molar value. Where two headings read alike, the source gives them in different places. Values belong to the compound of their own block, whether it stands above or below them.

Key:
[1] = biological target: T1, CbuqOBP1 (Cyrtotrachelus buqueti, UniProt A0A1L3KPS8); experiment: Binding of fluorescent probe 1-NPN to CbuqOBP1 (titration, Scatchard plot); settings: 2 μM protein titrated with 1-NPN 2 to 40 μM, read-out: K 1-NPN (dissociation constant of CbuqOBP1/1-NPN complex)
Protocol: (§1) The fluorescence competition binding assays were carried out with a F-7000 fluorescence spectrophotometer (Hitachi, Tokyo, Japan) at room temperature using a 1 cm wide light-path fluorimeter quartz cuvette and 10 nm slits for both excitation and emission. The purified CbuqOBP1 was dissolved in 50 mM Tris–HCl buffer (pH 7.4) to a final concentration of 2 μM, while all ligands used in binding experiments were dissolved in chromatographic methanol to a final concentration of 1 mM.
N-phenyl-1-naphthylamine (1-NPN) (Aladdin Biochemical Technology Co., LTD., Shanghai, China) was used as the fluorescent probe. The probe was excited at 337 nm and emission spectra were recorded between 350 and 550 nm. […] Assuming that 1-NPN binds to the protein at a 1:1 ratio and that the protein was 100% active, a Scatchard plot analysis of the binding data was performed to calculate the dissociation constant (K d) of CbuqOBP1 with 1-NPN.

[2] = biological target: T1, CbuqOBP1; experiment: Fluorescence competition binding assay with 1-NPN as probe; settings: for pKi: K i = [IC50]/(1 + [1-NPN]/K 1-NPN), CbuqOBP1 and 1-NPN both 2 μM, pH 7.4
Protocol: as §1
N-phenyl-1-naphthylamine (1-NPN) (Aladdin Biochemical Technology Co., LTD., Shanghai, China) was used as the fluorescent probe. The probe was excited at 337 nm and emission spectra were recorded between 350 and 550 nm.
Based on the above studies, a total of nine candidate volatiles were selected as test ligands, including eight volatiles emitted by female adults of C. buqueti and the linalool released from the host plant N. affinis (Table 1). All these compounds were purchased from Aladdin Biochemical Technology Co., LTD. (Shanghai, China) with a purity of at least more than 90%. […] Binding data were collected as three independent measurements.

[3] = tested on: C. buqueti adults; parameters: method as in Cai, 2018; settings: previous behavioral studies; ref Cai, 2018; cited from earlier work
[4] = tested on: Xylotrechus rusticus (Coleoptera) adults; parameters: method as in Li L. et al., 2013; Chen et al., 2014; settings: ref Li L. et al., 2013; Chen et al., 2014; cited from earlier work
[5] = tested on: Bradysia odoriphaga (Diptera) adults; parameters: method as in Li L. et al., 2013; Chen et al., 2014; settings: ref Li L. et al., 2013; Chen et al., 2014; cited from earlier work
[6] = recombinant CbuqOBP1 and 1-NPN both 2 μM, 50 mM Tris-HCl pH 7.4, room temperature, read-out: IC50

T1 sequence (A0A1L3KPS8 entry or part of it): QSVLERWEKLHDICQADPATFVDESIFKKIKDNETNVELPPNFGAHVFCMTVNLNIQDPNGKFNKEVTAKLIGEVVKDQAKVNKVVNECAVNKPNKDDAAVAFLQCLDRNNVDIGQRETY

SMILES: c1ccc(Nc2cccc3ccccc23)cc1 [1-NPN, N-phenyl-1-naphthylamine]
- pKd [1]: 4.62

SMILES: C=C(C)[C@H]1CC=C(C)CC1 [(+)-Limonene]
- pIC50 [2]: 4.73

SMILES: c1ccc2scnc2c1 [Benzothiazole]
- attractant for adults [3]: efficient attractants
- pIC50 [2]: 4.92
- attractiveness to adults [4]: highly attractive
- attractiveness to adults [5]: highly attractive

SMILES: C[C@@H]1CC[C@H]2C(C)(C)[C@H]3C[C@@]12CC[C@@]3(C)O [Cedrol]
- pIC50 [2]: 4.40

- pKi [2]: 4.71
- pIC50 [2, 6]: 4.68
SMILES: CCCCCC(=O)OCC [Ethyl hexanoate]

SMILES: C=CC(C)(O)CCC=C(C)C (stereo not shown) [Linalool]
- pIC50 [2]: 4.84

SMILES: Cc1cccc(C)c1 [M-xylene]
- pIC50 [2]: 4.44

SMILES: Oc1ccccc1 [Phenol]
- attractant for adults [3]: efficient attractants
- pIC50 [2]: 4.94

SMILES: C=Cc1ccccc1 [Styrene]
- pIC50 [2]: 4.66

- pKi [2]: 4.65
- pIC50 [2, 6]: 4.61
SMILES: CCCC/C=C/C=C/C=O [trans,trans-2,4-Nonadienal]
